Experimental data reported in patent US5288709A, “Erythromycin derivatives” (priority 1991, dated 1994).
Values after ≈ are worked out from the molar mass of the structure shown. Where two headings read alike, the source gives them in different places.

What was measured:
Experiment in all cases: In-vitro antimicrobial activity primary screen (agar dilution MIC)
Type in all cases: cell-based
Acinetobacter SP CMX 669 = conditions: Acinetobacter, SPCMX669, 24 h
How it was run: (§1)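 Steps: prepare 12 BHI agar plates with serial aqueous dilutions; inoculate with 1:100 dilutions (1:10 for Streptococcus and other slow growers); incubate 35-37° C, 20-24 h; score MIC as lowest concentration with no growth, slight haze or isolated colonies.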

[1] = test system: Enterobacter aerogenes ATCC 13048; conditions: Klebsiella aerogenes, Enterobacter aerogenes ATCC 13048, BHI agar, 20-24 h
How it was run: as §1

[2] = test system: Enterococcus faecium ATCC 8043; conditions: ATCC8043; Enterococcus faecium ATCC 8043; BHI agar, 20-24 h; read-out: MIC
How it was run: as §1

Escherichia coli DC-2 = conditions: DC2; Escherichia coli DC-2; BHI agar, 20-24 h; read-out: MIC
How it was run: as §1

Escherichia coli H560 = conditions: Escherichia coli H560; BHI agar, 20-24 h; read-out: MIC
How it was run: as §1

Escherichia coli JUHL = conditions: Escherichia coli JUHL; BHI agar, 20-24 h; read-out: MIC
How it was run: as §1

Escherichia coli SS = conditions: BHI agar, 20-24 h, read-out: MIC
How it was run: as §1

[3] = test system: Klebsiella pneumoniae ATCC 8045; conditions: Klebsiella pneumoniae, ATCC8045, 24 h
How it was run: as §1

[4] = test system: Micrococcus luteus ATCC 4698; conditions: 20-24 h
How it was run: as §1

[5] = test system: Micrococcus luteus ATCC 9341; conditions: Micrococcus luteus, ATCC9341, 24 h, BHI agar, 20-24 h
How it was run: as §1

[6] = test system: Providencia stuartii CMX 640; conditions: Providencia stuartii, CMX640, 24 h
How it was run: as §1

[7] = test system: Pseudomonas aeruginosa A5007; conditions: Pseudomonas aeruginosa, A5007, 24 h
How it was run: as §1

[8] = test system: Pseudomonas aeruginosa BMH10; conditions: Pseudomonas aeruginosa, BMH10, 24 h, BHI agar, 20-24 h
How it was run: as §1

[9] = test system: Pseudomonas aeruginosa K799/61; conditions: Pseudomonas aeruginosa K799/61; BHI agar, 20-24 h; read-out: MIC
How it was run: as §1

[10] = test system: Pseudomonas aeruginosa K799/WT; conditions: Pseudomonas aeruginosa, K799/WT, 24 h
How it was run: as §1

Pseudomonas cepacia 2961 = conditions: Burkholderia cepacia, 2961, 24 h, BHI agar, 20-24 h
How it was run: as §1

[11] = test system: Staphylococcus aureus 45 RAR2; conditions: Staphylococcus aureus, 45RAR2, 24 h, BHI agar, 20-24 h
How it was run: as §1

Staphylococcus aureus 45 = conditions: BHI agar, 20-24 h, read-out: MIC
How it was run: as §1

[12] = test system: Staphylococcus aureus 642A; conditions: BHI agar, 20-24 h, read-out: MIC
How it was run: as §1

[13] = test system: Staphylococcus aureus A5177; conditions: Staphylococcus aureus, A5177, 24 h, Staphylococcus aureus A5177; BHI agar, 20-24 h
How it was run: as §1

[14] = test system: Staphylococcus aureus ATCC 6538P; conditions: Staphylococcus aureus, ATCC6538P, 24 h, BHI agar, 20-24 h
How it was run: as §1

[15] = test system: Staphylococcus aureus NCTC 10649; conditions: NCTC10649, BHI agar, 20-24 h, read-out: MIC
How it was run: as §1

[16] = test system: Staphylococcus epidermidis 3519; conditions: BHI agar, 20-24 h, read-out: MIC
How it was run: as §1

[17] = test system: Streptococcus agalactiae CMX 508; conditions: CMX508, BHI agar, 20-24 h, read-out: MIC
How it was run: as §1

[18] = test system: Streptococcus bovis A5169; conditions: Streptococcus equinus, BHI agar, 20-24 h
How it was run: as §1

[19] = test system: Streptococcus pyrogenes 2548 INDUC; conditions: BHI agar, 20-24 h, read-out: MIC
How it was run: as §1

[20] = test system: Streptococcus pyrogenes EES61; conditions: BHI agar, 20-24 h, read-out: MIC
How it was run: as §1

[21] = test system: Staphylococcus aureus CMX 553; conditions: Staphylococcus aureus, CMX553, 24 h, BHI agar, 20-24 h, read-out: MIC
How it was run: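 Agar dilution in Brain Heart Infusion agar with twelve successive compound dilutions; plates inoculated with 1:100 diluted cultures by replicator and incubated 20-24 h at 35-37 °C. MIC is the lowest concentration giving no growth, slight haze or sparse isolated colonies versus compound-free control; erythromycin A plate run as reference.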

**Q.** `CC[C@H]1OC(=O)[C@H](C)[C@@H](O[C@H]2C[C@@](C)(OC)[C@H](N)[C@H](C)O2)[C@H](C)[C@@H](O[C@@H]2O[C@H](C)C[C@H](N(C)C)[C@H]2O)[C@](C)(O)C[C@@H](C)[C@@H]2O[C@@]1(C)[C@@H](N)[C@H]2C` [Example 20, (4"R,9S,11S)-4",11-Diamino-9-deoxo-4",11,12-trideoxy-9,12-epoxyerythromycinA] was tested. Which MIC (Acinetobacter SP CMX 669) did it give?
**A.** The MIC was 1.56 µg/mL (≈ 2.18 µM).

**Q.** What about the MIC ([1]; ATCC13048, read-out: MIC) of the same compound?
**A.** Its MIC is 12.5 µg/mL (≈ 17.5 µM).

**Q.** And the MIC [2]?
**A.** The MIC was 0.05 µg/mL (≈ 0.0698 µM).

**Q.** And the MIC (Escherichia coli DC-2)?
**A.** The MIC was 3.1 µg/mL (≈ 4.33 µM).

**Q.** And the MIC (Escherichia coli H560)?
**A.** Its MIC is 1.56 µg/mL (≈ 2.18 µM).

**Q.** What about the MIC (Escherichia coli JUHL) of the same compound?
**A.** Its MIC is 3.1 µg/mL (≈ 4.33 µM).

**Q.** What about the MIC (Escherichia coli SS) of the same compound?
**A.** Its MIC is 0.05 µg/mL (≈ 0.0698 µM).

**Q.** And the MIC [3]?
**A.** The MIC was 1.56 µg/mL (≈ 2.18 µM).

**Q.** And the MIC ([4]; Micrococcus luteus, ATCC4698, 24 h, BHI agar)?
**A.** Its MIC is 0.1 µg/mL (≈ 0.14 µM).

**Q.** And the MIC [5]?
**A.** Its MIC is 0.02 µg/mL (≈ 0.0279 µM).

**Q.** And the MIC [6]?
**A.** The MIC was greater than 100 µg/mL.

**Q.** What about the MIC [7] of the same compound?
**A.** The MIC was greater than 100 µg/mL.

**Q.** What about the MIC [8] of the same compound?
**A.** The MIC was 25 µg/mL (≈ 34.9 µM).

**Q.** What about the MIC [9] of the same compound?
**A.** Its MIC is 0.78 µg/mL (≈ 1.09 µM).

**Q.** What about the MIC ([10]; Pseudomonas aeruginosa K799/WT, BHI agar, 20-24 h) of the same compound?
**A.** The MIC was 50 µg/mL (≈ 69.8 µM).

**Q.** And the MIC (Pseudomonas cepacia 2961)?
**A.** Its MIC is greater than 100 µg/mL.

**Q.** What about the MIC [11] of the same compound?
**A.** Its MIC is 0.39 µg/mL (≈ 0.545 µM).

**Q.** What about the MIC (Staphylococcus aureus 45) of the same compound?
**A.** The MIC was 0.2 µg/mL (≈ 0.279 µM).

**Q.** And the MIC [12]?
**A.** The MIC was 0.39 µg/mL (≈ 0.545 µM).

**Q.** And the MIC [13]?
**A.** Its MIC is 0.78 µg/mL (≈ 1.09 µM).

**Q.** And the MIC [14]?
**A.** The MIC was 0.2 µg/mL (≈ 0.279 µM).

**Q.** And the MIC [15]?
**A.** The MIC was 0.39 µg/mL (≈ 0.545 µM).

**Q.** What about the MIC [16] of the same compound?
**A.** The MIC was 0.2 µg/mL (≈ 0.279 µM).

**Q.** What about the MIC [17] of the same compound?
**A.** The MIC was 0.02 µg/mL (≈ 0.0279 µM).

**Q.** And the MIC ([18]; A5169, 24 h)?
**A.** The MIC was no more than 0.005 µg/mL.

**Q.** What about the MIC [19] of the same compound?
**A.** Its MIC is 0.78 µg/mL (≈ 1.09 µM).

**Q.** What about the MIC [20] of the same compound?
**A.** Its MIC is no more than 0.005 µg/mL.

**Q.** What about the MIC [21] of the same compound?
**A.** Its MIC is 0.2 µg/mL (≈ 0.279 µM).

**Q.** `CC[C@H]1OC(=O)[C@H](C)[C@@H](O[C@H]2C[C@@](C)(OC)[C@H](O)[C@H](C)O2)[C@H](C)[C@@H](O[C@@H]2O[C@H](C)C[C@H](N(C)C)[C@H]2O)[C@](C)(O)C[C@@H](C)[C@@H]2O[C@@]1(C)C(=O)[C@H]2C` [Example 21, (4"R,9S)-9-Deoxo-11,12-dideoxy-9,12-epoxy-11-oxoerythromycin A] was tested. Which MIC (Acinetobacter SP CMX 669) did it give?
**A.** Its MIC is 0.39 µg/mL (≈ 0.545 µM).

**Q.** What about the MIC ([1]; ATCC13048, 24 h) of the same compound?
**A.** The MIC was 6.2 µg/mL (≈ 8.66 µM).

**Q.** And the MIC [2]?
**A.** Its MIC is 0.05 µg/mL (≈ 0.0698 µM).

**Q.** And the MIC (Escherichia coli DC-2)?
**A.** The MIC was 3.1 µg/mL (≈ 4.33 µM).

**Q.** What about the MIC (Escherichia coli H560) of the same compound?
**A.** The MIC was 0.78 µg/mL (≈ 1.09 µM).

**Q.** And the MIC (Escherichia coli JUHL)?
**A.** The MIC was 1.56 µg/mL (≈ 2.18 µM).

**Q.** And the MIC (Escherichia coli SS)?
**A.** The MIC was 0.1 µg/mL (≈ 0.14 µM).

**Q.** What about the MIC [3] of the same compound?
**A.** The MIC was 1.56 µg/mL (≈ 2.18 µM).

**Q.** And the MIC ([4]; ATCC4698, BHI agar, read-out: MIC)?
**A.** Its MIC is 0.05 µg/mL (≈ 0.0698 µM).

**Q.** What about the MIC [5] of the same compound?
**A.** The MIC was no more than 0.005 µg/mL.

**Q.** What about the MIC [6] of the same compound?
**A.** Its MIC is greater than 100 µg/mL.

**Q.** What about the MIC [7] of the same compound?
**A.** The MIC was greater than 100 µg/mL.

**Q.** And the MIC [8]?
**A.** Its MIC is 12.5 µg/mL (≈ 17.5 µM).

**Q.** And the MIC [9]?
**A.** The MIC was 0.39 µg/mL (≈ 0.545 µM).

**Q.** What about the MIC [10] of the same compound?
**A.** Its MIC is 100 µg/mL (≈ 140 µM).

**Q.** And the MIC (Pseudomonas cepacia 2961)?
**A.** The MIC was greater than 100 µg/mL.

**Q.** And the MIC [11]?
**A.** The MIC was 0.2 µg/mL (≈ 0.279 µM).

**Q.** What about the MIC (Staphylococcus aureus 45) of the same compound?
**A.** The MIC was 0.1 µg/mL (≈ 0.14 µM).

**Q.** What about the MIC [12] of the same compound?
**A.** The MIC was 0.2 µg/mL (≈ 0.279 µM).

**Q.** And the MIC [13]?
**A.** The MIC was 1.56 µg/mL (≈ 2.18 µM).

**Q.** And the MIC [14]?
**A.** The MIC was 0.2 µg/mL (≈ 0.279 µM).

**Q.** What about the MIC [15] of the same compound?
**A.** Its MIC is 0.2 µg/mL (≈ 0.279 µM).

**Q.** What about the MIC [16] of the same compound?
**A.** Its MIC is 0.2 µg/mL (≈ 0.279 µM).

**Q.** And the MIC [17]?
**A.** The MIC was 0.01 µg/mL (≈ 0.014 µM).

**Q.** And the MIC ([18]; read-out: MIC)?
**A.** Its MIC is 0.01 µg/mL (≈ 0.014 µM).

**Q.** What about the MIC [19] of the same compound?
**A.** Its MIC is 1.56 µg/mL (≈ 2.18 µM).

**Q.** What about the MIC [20] of the same compound?
**A.** The MIC was 0.01 µg/mL (≈ 0.014 µM).

**Q.** What about the MIC [21] of the same compound?
**A.** Its MIC is 0.2 µg/mL (≈ 0.279 µM).
